The values that follow come from PubChem BioAssay (NCI).

Each structure is given as a SMILES string. Converted amounts (≈) assume the structure as drawn.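 A five-concentration, 48-hour dose response in 96-well plates underlies each endpoint, interpolated linearly between surrounding concentrations. GI50: concentration for 50% inhibition of growth. At the TGI there is no net growth.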

Among the test systems are COLO 205 colon; HOP-92 NSCLC; IGROV1 ovarian; RXF 393 renal; SF-295 CNS; SK-MEL-2 melanoma; SK-MEL-28 melanoma; SK-OV-3 ovarian; U251 CNS; HCT-116 colon; SN12C renal.
Experiment in all cases: NCI-60 cell line screen, 48 h

Regarding `CCOC(=O)c1csc(NC(=O)C(C)N2CCCC2)n1` (stereo not given), the TGI in the test with COLO 205 colon, in the test on HOP-92 NSCLC, in the test on IGROV1 ovarian, in the test on RXF 393 renal, with SF-295 CNS and with SK-MEL-2 melanoma was more than 100 µM in each case. Also, the TGI in the test with SK-MEL-28 melanoma, in the test on SK-OV-3 ovarian and in the test with U251 CNS was more than 100 µM in each case.
Regarding `O=C1NN(C2=NNC3(C(=O)N2)c2ccccc2-c2ccccc23)C(c2ccccc2)=N/C1=C/c1ccc(Cl)cc1`, the GI50 in the test with COLO 205 colon is 69.2 µg/mL (≈ 127 µM); with HCT-116 colon it was 51.2 µg/mL (≈ 94 µM); in the test on IGROV1 ovarian it was 60.5 µg/mL (≈ 111 µM); in the test with RXF 393 renal, 56.9 µg/mL (≈ 104 µM); in the test with SF-295 CNS, 30.7 µg/mL (≈ 56.3 µM); in the test with SK-MEL-28 melanoma, 63 µg/mL (≈ 116 µM). Besides, the values for the GI50 with SK-OV-3 ovarian, with SN12C renal and in the test with U251 CNS were 54 µg/mL (≈ 99.1 µM), 53.5 µg/mL (≈ 98.2 µM) and 41.3 µg/mL (≈ 75.8 µM), respectively. For the same compound, the TGI is more than 150 µg/mL in the test on COLO 205 colon; more than 150 µg/mL in the test with HCT-116 colon; more than 150 µg/mL in the test with IGROV1 ovarian; more than 150 µg/mL in the test on RXF 393 renal; 73.9 µg/mL in the test with SF-295 CNS; more than 150 µg/mL in the test on SK-MEL-28 melanoma. For the same compound, the TGI in the test with SK-OV-3 ovarian was more than 150 µg/mL; in the test with SN12C renal, more than 150 µg/mL; in the test on U251 CNS it was 143 µg/mL.
As for `CC(=O)NNc1nc(C)c(C(=O)NNC(=O)C(=O)Nc2ccc([N+](=O)[O-])cc2[N+](=O)[O-])s1`, the TGI in the test with COLO 205 colon, in the test with HCT-116 colon, in the test on HOP-92 NSCLC, in the test on IGROV1 ovarian, in the test with RXF 393 renal and in the test on SF-295 CNS was more than 100 µM throughout. Also, the TGI in the test with SK-MEL-2 melanoma, in the test with SK-MEL-28 melanoma, with SK-OV-3 ovarian, in the test on SN12C renal and in the test with U251 CNS was more than 100 µM throughout.
Turning to `COC(=O)C(Cc1cn(C(C)n2cc(CC(NC(C)=O)C(=O)OC)c3ccccc32)c2ccccc12)NC(C)=O` (stereo not given), the TGI with COLO 205 colon, with HCT-116 colon, in the test with HOP-92 NSCLC, in the test with IGROV1 ovarian, with SF-295 CNS and in the test on SK-MEL-2 melanoma was more than 100 µM throughout. The TGI in the test with SK-MEL-28 melanoma, with SK-OV-3 ovarian, in the test with SN12C renal and in the test with U251 CNS was more than 100 µM in each case.
As for `CO/N=C1\CC(NC(=O)C(F)(F)F)c2ccsc21` (stereo not given), the TGI in the test with COLO 205 colon, in the test with HCT-116 colon, in the test with HOP-92 NSCLC, with IGROV1 ovarian, in the test on RXF 393 renal and with SF-295 CNS was more than 100 µM each time. The TGI in the test with SK-MEL-2 melanoma, in the test on SK-MEL-28 melanoma, in the test with SK-OV-3 ovarian, in the test with SN12C renal and in the test on U251 CNS was more than 100 µM each time.
With `COC(=O)CC(=O)OSc1ccccc1`, the TGI with COLO 205 colon is 38.2 µM; in the test on HCT-116 colon, 26.9 µM; with HOP-92 NSCLC it was 67.9 µM; in the test on IGROV1 ovarian it was 20.2 µM; in the test on RXF 393 renal, 25.3 µM; in the test with SF-295 CNS, 96.3 µM. Besides, the TGI in the test with SK-MEL-2 melanoma was 97.5 µM; in the test on SK-OV-3 ovarian, 46 µM; with SN12C renal it was 27.1 µM; with U251 CNS, 24.1 µM.
With `O=c1oc2ccccc2c(O)c1Cc1ccc(Cc2c(O)c3ccccc3oc2=O)cc1`, the TGI in the test with COLO 205 colon, in the test on HCT-116 colon, with HOP-92 NSCLC, with IGROV1 ovarian, in the test on RXF 393 renal and in the test on SF-295 CNS was more than 100 µM throughout. Besides, the TGI in the test with SK-MEL-2 melanoma, in the test with SK-MEL-28 melanoma, in the test on SK-OV-3 ovarian, in the test with SN12C renal and in the test with U251 CNS was more than 100 µM in each case.
